The source of these data is ChEMBL document CHEMBL1128559, “Inhibition of the oncogene product p185erbB-2 in vitro and in vivo by geldanamycin and dihydrogeldanamycin derivatives” (J Med Chem, 1995).

For experiment [1], the system named is Mus musculus. Nature of the experiment: In vivo inhibition of phospho-p185erbB-2 expression in human SK-BR-3 tumors at 100 mg/kg dose in mice. It counts as functional.
Experiment [2] has as its system SK-BR-3. Put plainly: Inhibition of oncogene product p185 erbB-2 from human breast cancer cells(SK-BR-3 cells).
In experiment [3] the test system is Mus musculus. Put plainly: In vivo inhibition of phospho-p185erbB-2 expression in FRE/erbB-2 tumors at 50 mg/kg dose in mice.
The subject of experiment [4] is Mus musculus. Nature of the experiment: In vivo inhibition of phospho-p185erbB-2 expression in FRE/erbB-2 tumors at 200 mg/kg dose in mice.
Experiment [5] concerns Mus musculus. Put plainly: In vivo inhibition of phospho-p185erbB-2 expression in FRE/erbB-2 tumors at 400 mg/kg dose in mice.
Experiment [6] deals with Mus musculus. Put plainly: In vivo inhibition of phospho-p185erbB-2 expression in FRE/erbB-2 tumors in nu/nu mice at 100 mg/kg dose.
Experiment [7] deals with Mus musculus. Nature of the experiment: In vivo inhibition of phospho-p185erbB-2 expression in FRE/erbB-2 tumors in nu/nu mice at 200 mg/kg dose.
The test system of experiment [8] is Mus musculus. Nature of the experiment: In vivo inhibition of phospho-p185erbB-2 expression in human SK-BR-3 tumors at 50 mg/kg ip dose in mice. The experiment is classed as functional. The conditions noted are these: SK-BR-3, ip, route intraperitoneal.
In experiment [9] the test system is Mus musculus. Nature of the experiment: In vivo inhibition of phospho-p185erbB-2 expression in human SK-BR-3 tumors at 100 mg/kg ip dose in mice. It counts as functional. The note with it: SK-BR-3, ip, route intraperitoneal.
The species named for experiment [10] is Mus musculus. The note with it: 400 mg/kg.
Description: In vivo inhibition of phospho-p185erbB-2 expression in human SK-BR-3 tumors at 400 mg/kg dose in mice (lethal)
Experiment [11] has as its system Mus musculus. Nature of the experiment: In vivo inhibition of phospho-p185erbB-2 expression in FRE/erbB-2 tumors at 200 mg/kg dose ip in mice. The conditions noted are these: FRE/erbB-2, ip.
Experiment [12] relates to SK-BR-3. Put plainly: Inhibition of oncogene product p185 erbB-2 from human breast cancer cells(SK-BR-3 cells) at 50 mg/kg dose. It counts as functional.
For experiment [13], the system named is SK-BR-3. Put plainly: […] inhibition of phospho-p185erbB-2 expression in human breast cancer cells(SK-BR-3 cells) at 200 mg/kg dose. The experiment is classed as functional.
Experiment [14] has as its system SK-BR-3. Nature of the experiment: In vitro inhibition of phospho-p185erbB-2 expression in human breast cancer cells(SK-BR-3 cells) at 50 mg/kg dose. Details: dose 50 mg/kg. The experiment is classed as functional.
In experiment [15] the test system is Mus musculus. Nature of the experiment: In vivo inhibition of phospho-p185erbB-2 expression in FRE/erbB-2 tumors at 400 mg/kg ip dose in mice. The note with it: FRE/erbB-2, ip.

In the case of `C=CCNC1=C2C[C@@H](C)C[C@H](OC)[C@H](O)[C@@H](C)/C=C(\C)[C@H](OC(N)=O)[C@@H](OC)/C=C\C=C(/C)C(=O)NC(=CC1=O)C2=O` [TANESPIMYCIN], the inhibition in vivo at 100 mg/kg worked out at 60% in experiment [1] and 55% in experiment [6]. This molecule also had an IC50 in experiment [2] of 31 nM. Moreover, the inhibition in vivo at 50 mg/kg in experiment [3] worked out at 27%. Besides, the inhibition in vivo at 200 mg/kg in experiment [4] turned out to be 80%; in [7], 68%. Besides, in experiment [5], testing at 400 mg/kg gave an inhibition in vivo of 72%.

On to `COC1=C2C[C@@H](C)C[C@H](OC)[C@H](O)[C@@H](C)/C=C(\C)[C@H](OC(N)=O)[C@@H](OC)/C=C\C=C(/C)C(=O)NC(=CC1=O)C2=O` [GELDANAMYCIN], for which the inhibition in vivo at 50 mg/kg in experiment [8] is 30%. Besides, in experiment [9], the inhibition in vivo at 100 mg/kg was 6%. The inhibition result in experiment [10] is “Lethal”. This molecule also yielded an IC50 in experiment [2] of 70 nM. The molecule further came in with an inhibition in vivo at 200 mg/kg in experiment [11] of 25%.

`CO[C@H]1/C=C\C=C(/C)C(=O)NC2=CC3=NC(N(C)Cc4ccccc4)=NC3=C(C[C@@H](C)C[C@H](OC)[C@H](O)[C@@H](C)/C=C(\C)[C@@H]1OC(N)=O)C2=O`: the IC50 in experiment [12] came to 300 nM.

Regarding `CO[C@H]1/C=C\C=C(/C)C(=O)NC2=CC3=NC(N(C)C)=NC3=C(C[C@@H](C)C[C@H](OC)[C@H](O)[C@@H](C)/C=C(\C)[C@@H]1OC(N)=O)C2=O`, in [12], inhibition was half-maximal at 50 nM (IC50).

With `CO[C@H]1/C=C\C=C(/C)C(=O)NC2=CC(=O)C(NCCF)=C(C[C@@H](C)C[C@H](OC)[C@H](O)[C@@H](C)/C=C(\C)[C@@H]1OC(N)=O)C2=O`, the IC50 in [2] was 12 nM. In addition, the inhibition in vivo at 100 mg/kg in experiment [6] is 50%. The same molecule displayed an inhibition in vivo at 200 mg/kg in [7] of 68%.

In experiment [2], `CO[C@H]1C[C@H](C)CC2=C(N)C(=O)C=C(NC(=O)/C(C)=C/CC[C@H](OC)[C@@H](OC(N)=O)/C(C)=C/[C@H](C)[C@H]1O)C2=O` displayed an IC50 of 40 nM. Further, the inhibition in vivo at 100 mg/kg in experiment [6] stood at 45%. In [7], this molecule came in with an inhibition in vivo at 200 mg/kg of 44%.

`CO[C@H]1C[C@H](C)CC2=C3N=C(N(C)C)N=C3C=C(NC(=O)/C(C)=C/CC[C@H](OC)[C@@H](OC(N)=O)/C(C)=C/[C@H](C)[C@H]1O)C2=O` gave an IC50 in experiment [12] of 50 nM.

Molecule `CO[C@H]1C[C@H](C)CC2=C(NCCC#N)C(=O)C=C(NC(=O)/C(C)=C/CC[C@H](OC)[C@@H](OC(N)=O)/C(C)=C/[C@H](C)[C@H]1O)C2=O` had a half-maximal inhibitory concentration (IC50) in experiment [12] of 30 nM. This IC50 is about 1.7-fold lower than that of the molecule before.

The molecule `CO[C@H]1/C=C\C=C(/C)C(=O)NC2=CC(=O)C(NCCC#N)=C(C[C@@H](C)C[C@H](OC)[C@H](O)[C@@H](C)/C=C(\C)[C@@H]1OC(N)=O)C2=O` yielded an IC50 in experiment [12] of 17 nM. The inhibition in vivo at 200 mg/kg in experiment [13] was 61%.

`CO[C@H]1/C=C\C=C(/C)C(=O)NC2=CC(=O)C=C(C[C@@H](C)C[C@H](OC)[C@H](O)[C@@H](C)/C=C(\C)[C@@H]1OC(N)=O)C2=O` came in with an inhibition in vivo at 50 mg/kg in [8] of 29%. In experiment [9], this molecule returned an inhibition in vivo at 100 mg/kg of 34%. For the same molecule, half-maximal inhibition in experiment [14] (IC50) required 300 nM. For the same molecule, in experiment [15], 400 mg/kg produced 57% inhibition in vivo.

The molecule `CCN(CC)C1=NC2=C3C[C@@H](C)C[C@H](OC)[C@H](O)[C@@H](C)/C=C(\C)[C@H](OC(N)=O)[C@@H](OC)/C=C\C=C(/C)C(=O)NC(=CC2=N1)C3=O` yielded an IC50 in experiment [12] of 210 nM.

The molecule `CO[C@H]1/C=C\C=C(/C)C(=O)NC2=CC(=O)C(N3CCC3)=C(C[C@@H](C)C[C@H](OC)[C@H](O)[C@@H](C)/C=C(\C)[C@@H]1OC(N)=O)C2=O` yielded an IC50 in [2] of 23 nM. Further, in [6], the inhibition in vivo at 100 mg/kg turned out to be 61%. This molecule showed an inhibition in vivo at 200 mg/kg in experiment [7] of 68%.

The molecule `CO[C@H]1C[C@H](C)CC2=C(N3CC(O)C3)C(=O)C=C(NC(=O)/C(C)=C/CC[C@H](OC)[C@@H](OC(N)=O)/C(C)=C/[C@H](C)[C@H]1O)C2=O` came in with an IC50 in [2] of 50 nM. The inhibition in vivo at 100 mg/kg in experiment [6] came to 29%. In experiment [7], this molecule gave an inhibition in vivo at 200 mg/kg of 44%.
